Calls of active or inactive are those of the source. No cut-off for these calls is given here.
What was measured:
Mus musculus [1] = assay: Toxicity in BALB/c nude mouse xenografted with human NCI-H460 cells assessed as hematuria at 40 mg/kg/day administered qd; format: organism-based; details: in vivo
Mus musculus [2] = assay: Toxicity in BALB/c nude mouse xenografted with human NCI-H460 cells assessed as bloody stool at 40 mg/kg/day administered qd; format: organism-based; details: in vivo
Mus musculus [3] = assay: Toxicity in BALB/c nude mouse xenografted with human NCI-H460 cells assessed as severe weight loss at 40 mg/kg/day administered qd; format: organism-based; details: in vivo
Aorta [4] = assay: Antiangiogenic activity in Sprague-Dawley rat aortic ring at 0.2 ug/ml after 6 days by inverted microscopic analysis; format: functional, tissue-based
Aorta [5] = assay: Inhibition of micrangium generation in Sprague-Dawley rat aortic ring at 0.2 ug/ml after 6 days by inverted microscopic analysis; format: functional, tissue-based
NCI-H460 [6] = assay: Antitumor activity against human NCI-H460 cells xenografted in BALB/c nude mouse assessed as tumor growth inhibition at 40 mg/kg/day administered qd measured up to day 21 relative to control; format: functional
Mus musculus [7] = assay: Toxicity in BALB/c nude mouse xenografted with human HT-29 cells assessed as severe weight loss at 80 mg/kg/day administered qd measured after 12 to 15 days; format: organism-based; details: in vivo
Mus musculus [8] = assay: Toxicity in BALB/c nude mouse xenografted with human HT-29 cells assessed as mortality at 80 mg/kg/day administered qd measured on day 21; format: organism-based; details: in vivo
HT-29 = assay: Antitumor activity against human HT-29 cells xenografted in BALB/c nude mouse assessed as tumor growth inhibition at 80 mg/kg/day administered qd measured up to day 21 relative to control; format: functional
[9] = Antiproliferative activity against human LO2 cells after 72 hrs by MTT assay; format: cell-based; details: L02, 72 h
Mus musculus [10] = assay: Toxicity in BALB/c nude mouse xenografted with human HT-29 cells assessed as change in body weight at 80 mg/kg/day administered qd relative to control; format: organism-based; details: in vivo
Mus musculus [11] = assay: Toxicity in BALB/c nude mouse xenografted with human NCI-H460 cells assessed as change in body weight at 40 mg/kg/day administered qd relative to control; format: organism-based; details: in vivo
[12] = Antiproliferative activity against human MV411 cells after 48 hrs by MTT assay; format: functional, cell-based; details: MV4-11, 48 h
TT = assay: Antiproliferative activity against human TT cells pretreated for 72 hrs followed by compound-washout measured after 72 hrs by MTT assay; format: functional, cell-based
NCI-H460 [13] = assay: Antiproliferative activity against human NCI-H460 cells after 72 hrs by MTT assay; format: functional, cell-based; details: NCI-H460, 72 h
NCI-H526 = assay: Antiproliferative activity against human NCI-H526 cells after 72 hrs by MTT assay; format: functional, cell-based; details: NCI-H526, 72 h
[14] = Antiproliferative activity against human NCI-H3122 cells after 72 hrs by MTT assay; format: functional, cell-based; details: NCI-H3122, 72 h
[15] = Antiproliferative activity against human Bel7402 cells after 72 hrs by MTT assay; format: functional, cell-based; details: Bel-7402, 72 h
[16] = Antiproliferative activity against human HK2 cells after 72 hrs by MTT assay; format: cell-based; details: HK-2, 72 h
Mus musculus [17] = assay: Toxicity in BALB/c nude mouse xenografted with human HT-29 cells assessed as hematuria at 80 mg/kg/day administered qd measured up to day 21; format: organism-based; details: in vivo
Mus musculus [18] = assay: Toxicity in BALB/c nude mouse xenografted with human HT-29 cells assessed as bloody stool at 80 mg/kg/day administered qd measured up to day 21; format: organism-based; details: in vivo
Mus musculus [19] = assay: Toxicity in BALB/c nude mouse xenografted with human HT-29 cells assessed as weight loss at 80 mg/kg/day administered qd measured up to day 21; format: organism-based; details: in vivo
Mus musculus [20] = assay: Toxicity in BALB/c nude mouse xenografted with human HT-29 cells assessed as severe weight loss at 80 mg/kg/day administered qd; format: organism-based; details: in vivo
Mus musculus [21] = assay: Toxicity in BALB/c nude mouse xenografted with human NCI-H460 cells assessed as weakness at 40 mg/kg/day administered qd; format: organism-based; details: in vivo
Mus musculus [22] = assay: Toxicity in BALB/c nude mouse xenografted with human NCI-H460 cells assessed as lethargic behavior at 40 mg/kg/day administered qd; format: organism-based; details: in vivo
Mus musculus [23] = assay: Toxicity in BALB/c nude mouse xenografted with human NCI-H460 cells assessed as severe weight loss at 40 mg/kg/day administered qd measured after 9 days; format: organism-based; details: in vivo, 216 h
Mus musculus [24] = assay: Toxicity in BALB/c nude mouse xenografted with human NCI-H460 cells assessed as bloody stool at 40 mg/kg/day administered qd measured after 9 days; format: organism-based; details: in vivo, 216 h
Mus musculus [25] = assay: Toxicity in BALB/c nude mouse xenografted with human NCI-H460 cells assessed as mortality at 40 mg/kg/day administered qd measured on day 15; format: organism-based; details: in vivo
Mus musculus [26] = assay: Toxicity in BALB/c nude mouse xenografted with human HT-29 cells assessed as mortality at 80 mg/kg/day administered qd measured on day 15; format: organism-based; details: in vivo
Mus musculus [27] = assay: Toxicity in BALB/c nude mouse xenografted with human HT-29 cells assessed as severe weight loss at 80 mg/kg/day administered qd measured after 6 days; format: organism-based; details: in vivo, 144 h

Compound: Cc1[nH]c(/C=C2\C(=O)Nc3ccc(F)cc32)c(C)c1NC(=O)CN1CCCCC1
- Activity (Mus musculus [1]): Non-toxic
- Activity (Mus musculus [2]): Non-toxic
- Activity (Mus musculus [3]): Non-toxic
- inhibition (Aorta [4]): Active
- inhibition (Aorta [5]): Active
- TGI (NCI-H460 [6]): inactive

Compound: CCN(CC)CCNC(=O)c1c(C)[nH]c(/C=C2\C(=O)Nc3ccc(F)cc32)c1C [SUNITINIB]
- Activity (Mus musculus [7]): Toxic
- Activity (Mus musculus [8]): Toxic
- Activity (HT-29): Active
- Activity (HT-29; record 2): 88.9%
- IC50 [9]: 19900 nM
- TGI (NCI-H460 [6]): Active
- Activity (Mus musculus [10]): -24.1%
- Activity (Mus musculus [11]): 12.3%
- IC50 [12]: 3 nM
- IC50 (TT): 40 nM
- IC50 (NCI-H460 [13]): 4310 nM
- IC50 (NCI-H526): 1010 nM
- IC50 [14]: 830 nM
- IC50 [15]: 2670 nM
- IC50 [16]: 5850 nM

Compound: Cc1[nH]c(/C=C2\C(=O)Nc3ccc(F)cc32)c(C)c1NC(=O)CCN1CCOCC1
- Activity (Mus musculus [17]): Non-toxic
- Activity (Mus musculus [18]): Non-toxic
- inhibition (Aorta [4]): Active
- inhibition (Aorta [5]): Active
- Activity (HT-29): inactive

Compound: CCN1CCN(C(=O)c2c(C)[nH]c(/C=C3\C(=O)Nc4ccc(F)cc43)c2C)CC1
- Activity (Mus musculus [17]): Non-toxic
- Activity (Mus musculus [18]): Non-toxic
- Activity (Mus musculus [19]): Non-toxic
- inhibition (Aorta [4]): Active
- inhibition (Aorta [5]): Active
- Activity (HT-29): Active

Compound: CCN1CCN(CCC(=O)Nc2c(C)[nH]c(/C=C3\C(=O)Nc4ccc(F)cc43)c2C)CC1
- Activity (Mus musculus [17]): Non-toxic
- Activity (Mus musculus [18]): Non-toxic
- Activity (Mus musculus [20]): Non-toxic
- Activity (Mus musculus [1]): Non-toxic
- Activity (Mus musculus [2]): Non-toxic
- Activity (Mus musculus [3]): Non-toxic
- inhibition (Aorta [4]): Active
- inhibition (Aorta [5]): Active
- Activity (HT-29): Active
- TGI (NCI-H460 [6]): Active

Compound: Cc1[nH]c(/C=C2\C(=O)Nc3ccc(F)cc32)c(C)c1NC(=O)CN1CCN(C)CC1
- Activity (Mus musculus [21]): Toxic
- Activity (Mus musculus [22]): Toxic
- Activity (Mus musculus [23]): Toxic
- Activity (Mus musculus [24]): Toxic
- Activity (Mus musculus [25]): Toxic
- inhibition (Aorta [4]): Active
- inhibition (Aorta [5]): Active

Compound: CCN(CC)CCC(=O)Nc1c(C)[nH]c(/C=C2\C(=O)Nc3ccc(F)cc32)c1C
- Activity (Mus musculus [26]): Toxic
- inhibition (Aorta [4]): Active
- inhibition (Aorta [5]): Active
- Activity (HT-29): Active
- Activity (Mus musculus [27]): Toxic

Compound: Cc1[nH]c(/C=C2\C(=O)Nc3ccc(F)cc32)c(C)c1NC(=O)CCN1CCCCC1
- Activity (Mus musculus [17]): Non-toxic
- Activity (Mus musculus [18]): Non-toxic
- Activity (Mus musculus [20]): Non-toxic
- Activity (Mus musculus [1]): Non-toxic
- Activity (Mus musculus [2]): Non-toxic
- Activity (Mus musculus [3]): Non-toxic
- inhibition (Aorta [4]): Active
- inhibition (Aorta [5]): Active
- Activity (HT-29): Active
- TGI (NCI-H460 [6]): Active

Compound: Cc1[nH]c(/C=C2\C(=O)Nc3ccc(F)cc32)c(C)c1NC(=O)/C=C/CN(C)C
- inhibition (Aorta [4]): Active
- inhibition (Aorta [5]): Active
- Activity (HT-29): inactive
